In patent publication USRE46630E1, “Substituted 4-pyridones and their use as inhibitors of neutrophil elastase activity” (Boehringer Ingelheim International GmbH, priority 2012, dated 2017):

The compounds below were run against T1, Human neutrophil elastase (Homo sapiens, UniProt P08246) (assay: Human Neutrophil Elastase Assay). Details: Neutrophil Elastase assay; substrate MeOSuc-Ala-Ala-Pro-Val-AMC 250 μM; 15 min preincubation, 60 min incubation at room temperature; pH 7.5.
T1 construct: purchased Calbiochem 324681
T1 sequence (P08246 30-267): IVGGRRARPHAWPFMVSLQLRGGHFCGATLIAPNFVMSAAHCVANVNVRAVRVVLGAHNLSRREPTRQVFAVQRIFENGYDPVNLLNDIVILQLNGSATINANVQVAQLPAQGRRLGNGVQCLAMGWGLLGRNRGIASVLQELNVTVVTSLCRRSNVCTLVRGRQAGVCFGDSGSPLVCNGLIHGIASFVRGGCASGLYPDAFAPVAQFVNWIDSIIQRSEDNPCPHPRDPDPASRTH
Assay type: biochemical
Outline: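 Run in 100 mM Tris, 500 mM NaCl, pH 7.5 with 0.01% BSA, with compounds prediluted in DMSO then buffer (5% DMSO final). Fluorescence was read at 380 nm excitation/460 nm emission after enzyme inactivation. Values were normalised to inactivated-enzyme (0%) and uninhibited-enzyme (100%) controls.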

Structure (SMILES)	IC50 [nM]
Cc1c(-c2cccc(C(F)(F)F)c2)c(=O)c(C(=O)NCC[S+](C)[O-])cn1C(C)c1ccc(C#N)cc1 (stereo not drawn) [Example 7.8]	1.3
Cc1c(-c2cccc(C(F)(F)F)c2)c(=O)c(C(=O)NCC2COCCO2)cn1Cc1ccc(C#N)cc1 (stereo not drawn) [Example 1.35]	31.4
CNC(=O)c1cn(C(C)c2ccc(C#N)cc2)c(C)c(-c2ccc(F)c(C(F)(F)F)c2)c1=O (stereo not drawn) [Example 30]	5.3
Cc1c(-c2cccc(C(F)(F)F)c2)c(=O)c(C(=O)NCC#N)cn1C(C)c1ccc(C#N)cn1 (stereo not drawn) [Example 47.20]	2.5
Cc1c(-c2ccnc(C(F)(F)F)c2)c(=O)c(C(=O)NCC2COC2)cn1C(C)c1ccc(C#N)cc1 (stereo not drawn) [Example 9.15]	5.7
CCNC(=O)c1cn(C(C)c2ccc(C#N)cc2)c(C)c(-c2cccc(C(F)(F)F)c2)c1=O (single isomer, unassigned) [Example 10A]	< 1
CNC(=O)c1cn(Cc2ccc(C#N)cc2OC)c(C)c(-c2cccc(C(F)(F)F)c2)c1=O [Example 3.7]	26.4
Cc1c(-c2cccc(C(F)F)c2)c(=O)c(C(=O)NCc2ccncc2)cn1C(C)c1ccc(C#N)cc1 (stereo not drawn) [Example 8.20]	1
Cc1c(-c2cccc(C(F)(F)F)c2)c(=O)c(C(=O)NCc2ccc(S(C)(=O)=O)cn2)cn1Cc1cccc(C#N)c1 [Example 4.4]	63.8
CNC(=O)c1cn(C(C)c2ccc(C#N)cn2)c(C)c(-c2cccc(C(F)F)c2)c1=O (single isomer, unassigned) [Example 16A]	4.2
Cc1c(-c2cccc(C(F)(F)F)c2)c(=O)c(C(=O)NC2CCOCC2)cn1C(C)c1ccc(C#N)cn1 (stereo not drawn) [Example 47.10]	19.2
Cc1c(-c2cccc(C(F)(F)F)c2)c(=O)c(C(=O)NCC2CCN(C(=O)CN(C)C)CC2)cn1Cc1ccc(C#N)cc1 [Example 1.7]	15.8
Cc1c(-c2ccnc(C(F)(F)F)c2)c(=O)c(C(=O)NC2CNC(=O)C2)cn1C(C)c1ccc(C#N)cc1 (stereo not drawn) [Example 9.8]	4.2
COCCCNC(=O)c1cn(C(C)c2ccc(C#N)cc2)c(C)c(-c2ccnc(C(F)(F)F)c2)c1=O (stereo not drawn) [Example 9.59]	7.5
CNC(=O)c1cn(C2CCc3cc(C#N)ccc32)c(C)c(-c2cccc(C(F)(F)F)c2)c1=O (stereo not drawn) [Example 37, 1-(5-Cyano-indan-1-yl)-6-methyl-4-oxo-5-(3-trifluoromethyl-phenyl)-1,4-dihydro-pyridine-3-carboxylic acid methylamide]	13.7
Cc1c(-c2cccc(C(F)(F)F)c2)c(=O)c(C(=O)NCc2ccc(S(C)(=O)=O)cc2)cn1Cc1ccc(F)cc1 [Example 2.2]	1.9
Cc1noc(CNC(=O)c2cn(Cc3ccc(C#N)cc3)c(C)c(-c3cccc(C(F)(F)F)c3)c2=O)n1 [Example 1.67]	6.5
Cc1c(-c2ccnc(C(F)(F)F)c2)c(=O)c(C(=O)NC2CCCCC2O)cn1C(C)c1ccc(C#N)cc1 (stereo not drawn) [Example 9.29]	22.3
CNC(=O)c1cn(C(C)c2ccc(C#N)cc2)c(C)c(-c2cccc(C)c2)c1=O (stereo not drawn) [Example 29]	14.4
Cc1c(-c2cccc(C(F)(F)F)c2)c(=O)c(C(=O)NCC2CCCO2)cn1Cc1ccc(C#N)cc1 (stereo not drawn) [Example 1.47]	22
Cc1c(-c2ccnc(C(F)(F)F)c2)c(=O)c(C(=O)NC2CC3CCC2O3)cn1C(C)c1ccc(C#N)cc1 (stereo not drawn) [Example 9.39]	58.3
Cc1c(-c2cccc(C(F)F)c2)c(=O)c(C(=O)NCc2cnn(C)c2)cn1C(C)c1ccc(C#N)cc1 (stereo not drawn) [Example 8.28]	3.3
Cc1c(-c2cccc(C(F)(F)F)c2)c(=O)c(C(=O)NCCC(C)O)cn1C(C)c1ccc(C#N)cn1 (stereo not drawn) [Example 47.4]	12.2

Structure (SMILES)	IC50 [nM]
Cc1c(-c2ccnc(C(F)(F)F)c2)c(=O)c(C(=O)NCC2CCOCC2)cn1C(C)c1ccc(C#N)cc1 (stereo not drawn) [Example 9.28]	12.8
Cc1c(-c2cccc(C(F)(F)F)c2)c(=O)c(C(=O)NCCCN(C)C)cn1Cc1ccc(C#N)cc1 [Example 1.4]	27.6
Cc1c(-c2cccc(C(F)(F)F)c2)c(=O)c(C(=O)NC2CCOC2)cn1Cc1ccc(C#N)cc1 (stereo not drawn) [Example 1.37]	95.7
Cc1c(-c2cccc(C(F)(F)F)c2)c(=O)c(C(=O)NCC(F)(F)F)cn1C(C)c1ccc(C#N)cn1 (stereo not drawn) [Example 47.3]	10.7
Cc1c(-c2ccnc(C(F)(F)F)c2)c(=O)c(C(=O)NCC(F)(F)F)cn1C(C)c1ccc(C#N)cc1 (stereo not drawn) [Example 9.43]	11.5
CNC(=O)c1cn(C(C)c2ccc(C#N)cn2)c(C)c(-c2cccc(C(F)(F)F)c2)c1=O (single isomer, unassigned) [Example 15B]	67.8
Cc1nc(CNC(=O)c2cn(C(C)c3ccc(C#N)cc3)c(C)c(-c3cccc(C(F)F)c3)c2=O)no1 (stereo not drawn) [Example 8.23]	3.4
Cc1c(-c2ccnc(C(F)(F)F)c2)c(=O)c(C(=O)NC2COCC2O)cn1C(C)c1ccc(C#N)cc1 (stereo not drawn) [Example 9.40]	69.4
Cc1c(-c2cccc(C(F)(F)F)c2)c(=O)c(C(=O)NCc2cccnc2)cn1Cc1ccc(C#N)cc1 [Example 1.46]	5.9
Cc1c(-c2cccc(C(F)(F)F)c2)c(=O)c(C(=O)NCC2CC[N+](C)(C)CC2)cn1Cc1ccc(C#N)cc1 [Example 12.3, 4-({[1-(4-Cyano-benzyl)-6-methyl-4-oxo-5-(3-trifluoromethyl-phenyl)-1,4-dihydro-pyridine-3-carbonyl]-amino}-methyl)-1,1-dimethyl-piperidinium chloride]	59.7
Cc1c(-c2cccc(C(F)F)c2)c(=O)c(C(=O)NCc2cnn(C)c2)cn1C(C)c1ccc(C#N)cc1 (stereo not drawn) [Example 8.14]	3.6
COC(=O)C(C)NC(=O)c1cn(C(C)c2ccc(C#N)cc2)c(C)c(-c2ccnc(C(F)(F)F)c2)c1=O (stereo not drawn) [Example 9.33]	23.1
Cc1c(-c2cccc(C(F)(F)F)c2)c(=O)c(C(N)=O)cn1C(C)c1ccc(C#N)cc1 (stereo not drawn) [Example 7.17]	18.5
Cc1nnc(CNC(=O)c2cn(Cc3ccc(C#N)cc3)c(C)c(-c3cccc(C(F)(F)F)c3)c2=O)o1 [Example 1.15]	7.9
Cc1c(-c2ccnc(C(F)(F)F)c2)c(=O)c(C(=O)NCC2CC3CCC2O3)cn1C(C)c1ccc(C#N)cc1 (stereo not drawn) [Example 9.30]	16.3
CCNC(=O)c1cn(C(C)c2ccc(C#N)cn2)c(C)c(-c2ccnc(C(F)(F)F)c2)c1=O (stereo not drawn) [Example 19, 1-[1-(5-Cyano-pyridin-2-yl)-ethyl]-2-methyl-4-oxo-2′-trifluoromethyl-1,4-dihydro-[3,4′]bipyridinyl-5-carboxylic acid ethylamide]	22.2
Cc1c(-c2cccc(C(F)(F)F)c2)c(=O)c(C(=O)NCc2ccc(S(C)(=O)=O)cn2)cn1Cc1ccc(C#N)c(F)c1 [Example 4.5]	1
Cc1c(-c2cccc(C(F)(F)F)c2)c(=O)c(C(=O)NCCCO)cn1Cc1ccc(C#N)cc1S(C)(=O)=O [Example 23]	4.4
Cc1c(-c2cccc(C(F)(F)F)c2)c(=O)c(C(=O)NCCn2cccn2)cn1Cc1ccc(C#N)cc1 [Example 1.30]	17.1
Cc1c(-c2cccc(C(F)(F)F)c2)c(=O)c(C(=O)NCC(C)(C)O)cn1C(C)c1ccc(C#N)cn1 (stereo not drawn) [Example 47.11]	63.5
CCS(=O)(=O)c1cc(C#N)ccc1Cn1cc(C(=O)NC)c(=O)c(-c2cccc(C(F)(F)F)c2)c1C [Example 26]	10.8
Cc1c(-c2cccc(C(F)(F)F)c2)c(=O)c(C(=O)NCC(=O)N(C)C)cn1Cc1ccc(C#N)cc1 [Example 1.65]	38.5
